Results published in ChEMBL document CHEMBL3044631, “Synthesis of 2-[4,5-dimethyl-1-(phenylamino)-1H-imidazol-2-ylthio]-N-(thiazole-2-yl)acetamide derivatives and their anticancer activities” (2013).

Legend:
Assay type in all cases: functional
M14 = test: Anticancer activity against Homo sapiens (human) M14 cells after 48 hr by SRB assay; conditions: M14, 48 h
CAKI-1 = test: Anticancer activity against Homo sapiens (human) CAKI-1 cells after 48 hr by SRB assay; conditions: CAKI-1, 48 h
HCT-116 = test: Anticancer activity against Homo sapiens (human) HCT116 cells after 48 hr by SRB assay; conditions: HCT-116, 48 h
786-0 = test: Anticancer activity against Homo sapiens (human) 786-0 cells after 48 hr by SRB assay; conditions: 786-0, 48 h
ACHN = test: Anticancer activity against Homo sapiens (human) ACHN cells after 48 hr by SRB assay
SF-268 = test: Anticancer activity against Homo sapiens (human) SF268 cells after 48 hr by SRB assay; conditions: SF-268, 48 h
MDA-MB-231 = test: Anticancer activity against Homo sapiens (human) MDA-MB-231/ATCC cells after 48 hr by SRB assay; conditions: MDA-MB-231, 48 h
Malme-3M = test: Anticancer activity against Homo sapiens (human) MALME-3M cells after 48 hr by SRB assay
EKVX = test: Anticancer activity against Homo sapiens (human) EKVX cells after 48 hr by SRB assay
NCI-H522 = test: Anticancer activity against Homo sapiens (human) NCI-H522 cells after 48 hr by SRB assay; conditions: NCI-H522, 48 h
SNB-75 = test: Anticancer activity against Homo sapiens (human) SNB75 cells after 48 hr by SRB assay; conditions: SNB-75, 48 h
HOP-62 = test: Anticancer activity against Homo sapiens (human) HOP62 cells after 48 hr by SRB assay; conditions: HOP-62, 48 h
K562 = test: Anticancer activity against Homo sapiens (human) K562 cells after 48 hr by SRB assay; conditions: K562, 48 h
BT-549 = test: Anticancer activity against Homo sapiens (human) BT549 cells after 48 hr by SRB assay; conditions: BT-549, 48 h
OVCAR-3 = test: Anticancer activity against Homo sapiens (human) OVCAR3 cells after 48 hr by SRB assay; conditions: OVCAR-3, 48 h
DU-145 = test: Anticancer activity against Homo sapiens (human) DU145 cells after 48 hr by SRB assay; conditions: DU-145, 48 h
T47D = test: Anticancer activity against Homo sapiens (human) T47D cells after 48 hr by SRB assay
SF-539 = test: Anticancer activity against Homo sapiens (human) SF539 cells after 48 hr by SRB assay; conditions: SF-539, 48 h
NCI/ADR-RES = test: Anticancer activity against Homo sapiens (human) NCI/ADR-RES cells after 48 hr by SRB assay
MOLT-4 = test: Anticancer activity against Homo sapiens (human) MOLT4 cells after 48 hr by SRB assay; conditions: MOLT-4, 48 h
COLO 205 = test: Anticancer activity against Homo sapiens (human) COLO205 cells after 48 hr by SRB assay; conditions: COLO 205, 48 h
HCT-15 = test: Anticancer activity against Homo sapiens (human) HCT15 cells after 48 hr by SRB assay; conditions: HCT-15, 48 h
UO-31 = test: Anticancer activity against Homo sapiens (human) UO31 cells after 48 hr by SRB assay; conditions: UO-31, 48 h
A498 = test: Anticancer activity against Homo sapiens (human) A498 cells after 48 hr by SRB assay; conditions: A498, 48 h
OVCAR-4 = test: Anticancer activity against Homo sapiens (human) OVCAR4 cells after 48 hr by SRB assay; conditions: OVCAR-4, 48 h
TK-10 = test: Anticancer activity against Homo sapiens (human) TK10 cells after 48 hr by SRB assay; conditions: TK-10, 48 h
UACC-257 = test: Anticancer activity against Homo sapiens (human) UACC257 cells after 48 hr by SRB assay; conditions: UACC-257, 48 h
MDA-MB-468 = test: Anticancer activity against Homo sapiens (human) MDA-MB-468 cells after 48 hr by SRB assay; conditions: MDA-MB-468, 48 h
A549 = test: Anticancer activity against Homo sapiens (human) A549/ATCC cells after 48 hr by SRB assay; conditions: A549, 48 h
SK-MEL-5 = test: Anticancer activity against Homo sapiens (human) SK-MEL-5 cells after 48 hr by SRB assay; conditions: SK-MEL-5, 48 h
MDA-MB-435 = test: Anticancer activity against Homo sapiens (human) MDA-MB-435 cells after 48 hr by SRB assay; conditions: MDA-MB-435, 48 h
[1] = read-out: LC50 (the source's name)

COc1ccc(Nn2c(SCC(=O)Nc3nc(-c4ccc(Cl)cc4)cs3)nc(C)c2C)cc1
GI50 (M14): 3.02 µM
LC50 (M14): > 100 µM
TGI (M14): > 100 µM
GI50 (CAKI-1): 2.16 µM
LC50 (concentration killing 50% of cells) (CAKI-1): > 100 µM
TGI (CAKI-1): > 100 µM
GI50 (HCT-116): 2.12 µM
LC50 (HCT-116): > 100 µM
TGI (HCT-116): 14.1 µM
GI50 (786-0): 3.46 µM
LC50 (lethal concentration 50) (786-0): > 100 µM
TGI (786-0): 18.2 µM
GI50 (ACHN): 2.27 µM
LC50 (concentration killing 50% of cells) (ACHN): > 100 µM
TGI (ACHN): 8.76 µM
GI50 (SF-268): 2.81 µM
LC50 (SF-268): > 100 µM
TGI (SF-268): > 100 µM
GI50 (MDA-MB-231): 8.37 µM
TGI (MDA-MB-231): > 100 µM
CC50 (MDA-MB-231; [1]): > 100 µM
GI50 (Malme-3M): 2.9 µM
TGI (Malme-3M): > 100 µM
CC50 (Malme-3M; [1]): > 100 µM
GI50 (EKVX): 1.92 µM
TGI (EKVX): > 100 µM
CC50 (EKVX; [1]): > 100 µM
GI50 (NCI-H522): 5.05 µM
LC50 (50% lethal concentration) (NCI-H522): > 100 µM
TGI (NCI-H522): > 100 µM
GI50 (SNB-75): 4.8 µM
LC50 (SNB-75): > 100 µM
TGI (SNB-75): > 100 µM
LC50 (HOP-62): > 100 µM
GI50 (K562): 1.58 µM
TGI (K562): > 100 µM
CC50 (K562; [1]): > 100 µM
GI50 (BT-549): 6.46 µM
LC50 (BT-549): > 100 µM
TGI (BT-549): 82 µM
GI50 (OVCAR-3): 3.13 µM
LC50 (50% lethal concentration) (OVCAR-3): > 100 µM
TGI (OVCAR-3): 24.2 µM
GI50 (DU-145): 4.06 µM
LC50 (concentration killing 50% of cells) (DU-145): > 100 µM
TGI (DU-145): > 100 µM
GI50 (T47D): 1.23 µM
TGI (T47D): 8.04 µM
CC50 (T47D; [1]): > 100 µM
GI50 (SF-539): 4.15 µM
LC50 (concentration killing 50% of cells) (SF-539): > 100 µM
TGI (SF-539): > 100 µM
GI50 (NCI/ADR-RES): 2.89 µM
LC50 (NCI/ADR-RES): > 100 µM
TGI (NCI/ADR-RES): > 100 µM
GI50 (MOLT-4): 2.54 µM
LC50 (50% lethal concentration) (MOLT-4): > 100 µM
TGI (MOLT-4): > 100 µM
GI50 (COLO 205): 1.94 µM
TGI (COLO 205): 3.55 µM
CC50 (COLO 205; [1]): 6.51 µM
GI50 (HCT-15): 4.79 µM
TGI (HCT-15): > 100 µM
CC50 (HCT-15; [1]): > 100 µM
GI50 (UO-31): 2.62 µM
TGI (UO-31): > 100 µM
CC50 (UO-31; [1]): > 100 µM
GI50 (A498): 2.22 µM
LC50 (A498): > 100 µM
TGI (A498): 56.5 µM
GI50 (OVCAR-4): 4.02 µM
LC50 (concentration killing 50% of starting cells) (OVCAR-4): > 100 µM
TGI (OVCAR-4): > 100 µM
GI50 (TK-10): 14.8 µM
LC50 (50% lethal concentration) (TK-10): > 100 µM
TGI (TK-10): 80.9 µM
GI50 (UACC-257): 2.97 µM
LC50 (UACC-257): > 100 µM
TGI (UACC-257): 41.1 µM
GI50 (MDA-MB-468): 0.57 µM
LC50 (MDA-MB-468): > 100 µM
TGI (MDA-MB-468): 7.73 µM
GI50 (A549): 3.32 µM
LC50 (A549): > 100 µM
TGI (A549): > 100 µM
GI50 (SK-MEL-5): 1.41 µM
LC50 (concentration killing 50% of cells) (SK-MEL-5): 7.96 µM
TGI (SK-MEL-5): 3.35 µM
GI50 (MDA-MB-435): 3.22 µM
LC50 (concentration killing 50% of cells) (MDA-MB-435): > 100 µM
TGI (MDA-MB-435): > 100 µM
